One data set deals with Rattus norvegicus. The settings on record: inhalation.
In another data set the test system is Anas platyrhynchos. The settings on record: short-term; oral; feed; mortality.
Another data set relates to Colinus virginianus. The settings on record: acute, oral, mortality; for LC50: diet.
A further data set concerns Oncorhynchus mykiss. Conditions: acute; duration: 96 hours; mortality.
In a further data set the test system is Coturnix japonica. The settings on record: reproduction developmental; reproduction.
Setting [1] is: chronic, duration: 2 years, no effects.
The mark [2] stands for this setting: reproduction developmental, mortality.
The mark [3] stands for this setting: subchronic, duration: 90 days, no effects.

Values after ≈ are worked out from the molar mass of the structure shown.

Experimental findings from EPA's ToxValDB 9.5 (doi:10.2903/j.efsa.2008.183r) are described below.

As to `P` [Phosphine], the NOAEL with Rattus norvegicus (setting [1]) turned out to be 1.1 mg/kg-day; in the data set on Rattus norvegicus (setting [2]) it was 1.9 mg/kg-day; with Rattus norvegicus (setting [3]) it was 1.1 mg/kg-day. The LC50 in the data set with Anas platyrhynchos was 762 mg/kg; in the data set on Colinus virginianus, 124 mg/kg; in the data set with Oncorhynchus mykiss it was 4.68 ng/mL (≈ 0.138 µM). This molecule returned an LD50 in the data set on Colinus virginianus of at most 9.2 mg/kg-day.
Turning to `[Ca+2].[Ca+2].[Ca+2].[P-3].[P-3]` [Tricalcium diphosphide], the NOAEL in the data set on Rattus norvegicus (setting [1]) worked out at 1.1 mg/kg-day; in the data set with Rattus norvegicus (setting [2]) it was 1.9 mg/kg-day; with Rattus norvegicus (setting [3]), 1.1 mg/kg-day. Also, the LC50 came out at 2040 mg/kg in the data set on Anas platyrhynchos and 330 mg/kg with Colinus virginianus. The molecule also yielded an LD50 in the data set with Colinus virginianus of under 24.7 mg/kg-day.
Consider `[PH]=[Zn].[PH]=[Zn].[Zn]` [Zinc phosphide (Zn3P2)], for which the LC50 in the data set on Anas platyrhynchos stood at 2880 mg/kg; with Colinus virginianus, 469 mg/kg. For the same molecule, in the data set on Coturnix japonica, the NOEC is under 3.5 mg/kg-day. Also, the LD50 in the data set with Colinus virginianus is under 35 mg/kg-day.
